In ChEMBL document CHEMBL1149589, “The influence of the long chain fatty acid on the antagonistic activities of Rhizobium sin-1 lipid A” (Bioorg Med Chem, 2007):
Active and inactive are the calls of the source. The rule behind the calls is not given here.

Tested on: MONO-MAC-6
Experiment: Antagonistic activity against Escherichia coli LPS-induced TNFalpha production in human Mono Mac 6 cells after 5.5 hrs
Type: functional, cell-based
Settings: for IC50: Homo sapiens, MONO-MAC-6, 5.5 h

IC50 [µM]	Compound	Inhibition [%]	Activity
9.1	CCCCCCCCCCCCC[C@@H](O)CC(=O)N[C@H]1C(=O)O[C@H](CO[C@@H]2O[C@H](CO)[C@@H](O)[C@H](OC(=O)C[C@H](O)CCCCCCCCCCCCC)[C@H]2NC(=O)C[C@@H](CCCCCCCCCCCCC)OC(=O)CCCCCCCCCCCCCCCCCCCCCCCCCC(C)O)[C@@H](O)[C@@H]1OC(=O)C[C@H](O)CCCCCCCCCCCCC (some centres undefined)	86	
	CCCCCCCCCCCCCC(=O)O[C@H](CCCCCCCCCCCCC)CC(=O)N[C@H]1[C@H](OC[C@H]2OC(=O)[C@H](NC(=O)C[C@H](O)CCCCCCCCCCCCC)[C@@H](OC(=O)C[C@H](O)CCCCCCCCCCCCC)[C@@H]2O)O[C@H](CO)[C@@H](O)[C@@H]1OC(=O)C[C@H](O)CCCCCCCCCCCCC		Active
7.5	CCCCCCCCCCCCCCCCCCCCCCCCCCCC(=O)O[C@H](CCCCCCCCCCCCC)CC(=O)N[C@H]1[C@H](OC[C@H]2OC(=O)[C@H](NC(=O)C[C@H](O)CCCCCCCCCCCCC)[C@@H](OC(=O)C[C@H](O)CCCCCCCCCCCCC)[C@@H]2O)O[C@H](CO)[C@@H](O)[C@@H]1OC(=O)C[C@H](O)CCCCCCCCCCCCC		
